Assay [1] addresses T1, Cathepsin L (hum. Leber) (Homo sapiens, UniProt P07711).
T1 construct: Cathepsin L (hum. Leber); from tissue; host or cells: human liver
The assay can be described thus: Inactivation of cathepsin L (second-order rate constants). The assay is classed as biochemical. Particulars: Table 3.

Assay [2] concerns the target T2, DP Ihum (Homo sapiens, UniProt P53634).
T2 construct: DP I (humane Niere); from tissue; host or cells: human kidney
As to the kind of experiment: Inactivation of DP I from human kidney (second-order rate constants). The assay is classed as biochemical.

Assay [3] addresses T3, Cathepsin B (hum. Leber) (Homo sapiens, UniProt P07858).
T3 construct: Cathepsin B (hum. Leber); from tissue; host or cells: human liver
As to the kind of experiment: Inactivation of cathepsin B (second-order rate constants). Type of assay: biochemical. Particulars: Table 3.

Assay [4] addresses T4, DP Ibovine (Bos taurus, UniProt Q3ZCJ8).
T4 construct: Inaktivierung der DP I aus Rinder- bzw. humaner Niere mittels H-Gly-Phe-NHO-Bz; from tissue; host or cells: bovine kidney
The assay can be described thus: Inactivation of DP I from bovine kidney (second-order rate constants). Type of assay: biochemical, Rinder.

The test system of assay [5] is DP I. The note with it: literature (Nikawa et al., 1992); cited from earlier work.
For assay [6], the target named is DP I (Homo sapiens, UniProt P53634). The assay can be described thus: Protection of glucagon from degradation by DP I, MALDI-TOF mass spectra. The assay is classed as biochemical. The note with it: 0.14 mM Glukagon, 40 mM TRIS/HCl pH 7,6; enzyme 15 nM; inhibitor 300 nM, 5 min preincubation with DP I. An excerpt: Schutz des Abbaus des Peptidhormons Glukagon durch Vorinkubation von DP I mit H-Gly-Phe-NHO-Bz
Abbildung 1: MALDI-TOF-Massenspektren von Reaktionslösungen, die Glukagon und DP I enthalten.

Assay [7] has as its system "DCE" (Dynorphin Converting Enzyme). Particulars: Demuth et al. 1991; cited from earlier work.
[8] abbreviates: DP Ibovine, inhibitor concentration 1e^-4 M, Table 2.
[9] abbreviates: DP Ihum, inhibitor concentration 1e^-4 M, Table 2.
The mark [10] stands for this setting: DP Ibovine, inhibitor concentration 2e^-5 M, Table 2.
[11] abbreviates: DP Ihum, inhibitor concentration 2e^-5 M, Table 2.

Entries after “also recorded” stand apart in the source; their conditions may differ.

T4 sequence (Q3ZCJ8 231-394 limits assumed): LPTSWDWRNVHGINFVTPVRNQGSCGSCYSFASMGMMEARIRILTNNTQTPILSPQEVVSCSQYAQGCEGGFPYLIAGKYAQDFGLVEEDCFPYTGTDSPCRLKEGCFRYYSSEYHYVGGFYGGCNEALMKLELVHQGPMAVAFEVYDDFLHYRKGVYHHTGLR
T4 sequence (Q3ZCJ8 25-143 limits assumed): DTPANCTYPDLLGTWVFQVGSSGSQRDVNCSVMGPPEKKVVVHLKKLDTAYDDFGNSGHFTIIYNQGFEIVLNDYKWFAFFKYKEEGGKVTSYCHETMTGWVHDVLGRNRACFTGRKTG
T4 sequence (Q3ZCJ8 395-463 limits assumed): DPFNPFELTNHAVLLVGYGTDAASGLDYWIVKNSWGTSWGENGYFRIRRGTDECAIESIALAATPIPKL
T2 sequence (P53634 231-394 limits assumed): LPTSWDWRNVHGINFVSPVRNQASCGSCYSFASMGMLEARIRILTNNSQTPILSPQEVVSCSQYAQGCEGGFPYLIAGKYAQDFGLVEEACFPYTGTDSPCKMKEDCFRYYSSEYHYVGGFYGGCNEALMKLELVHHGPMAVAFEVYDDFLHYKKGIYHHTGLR
T2 sequence (P53634 25-143 limits assumed): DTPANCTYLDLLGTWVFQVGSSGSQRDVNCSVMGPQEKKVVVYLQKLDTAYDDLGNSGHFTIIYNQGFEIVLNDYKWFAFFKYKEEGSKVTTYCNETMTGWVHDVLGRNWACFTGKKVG
T2 sequence (P53634 395-463 limits assumed): as the sequence (Q3ZCJ8 395-463 limits assumed) above, with A22S, L26M, S38G, L61V counted along it
T1 sequence (P07711 114-333): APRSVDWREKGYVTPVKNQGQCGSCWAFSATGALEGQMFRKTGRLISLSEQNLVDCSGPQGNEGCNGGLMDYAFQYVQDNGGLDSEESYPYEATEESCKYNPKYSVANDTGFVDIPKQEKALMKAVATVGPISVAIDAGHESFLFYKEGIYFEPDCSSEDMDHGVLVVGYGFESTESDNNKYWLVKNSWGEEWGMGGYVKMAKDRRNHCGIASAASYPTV
Sequence of DP I (Homo sapiens, UniProt P53634) (P53634 25-463): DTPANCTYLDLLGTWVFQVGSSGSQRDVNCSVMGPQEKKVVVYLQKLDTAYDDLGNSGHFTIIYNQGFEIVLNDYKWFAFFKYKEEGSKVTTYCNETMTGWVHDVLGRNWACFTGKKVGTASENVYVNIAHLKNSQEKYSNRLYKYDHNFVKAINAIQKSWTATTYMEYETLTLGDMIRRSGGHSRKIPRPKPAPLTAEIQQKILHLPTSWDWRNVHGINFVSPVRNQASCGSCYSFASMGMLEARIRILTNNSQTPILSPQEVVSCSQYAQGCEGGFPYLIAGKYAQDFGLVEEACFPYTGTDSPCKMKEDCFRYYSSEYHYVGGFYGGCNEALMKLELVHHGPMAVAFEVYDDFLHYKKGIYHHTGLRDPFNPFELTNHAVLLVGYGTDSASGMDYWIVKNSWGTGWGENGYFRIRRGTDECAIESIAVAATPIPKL

`O=C(CNC(=O)OCc1ccccc1)N[C@@H](Cc1ccccc1)C(=O)NOC(=O)c1ccccc1` [Z-Gly-Phe-NHO-Bz]: the inactivation efficiency (kinact/KI) stood at 223 M⁻¹ s⁻¹ in assay [1] and 418 M⁻¹ s⁻¹ in assay [3]. Further, the kinact/Ki result in assay [2] (DP I (humane Niere), Table 3) is reported as “Keine Hemmung”.
For `C[C@H](NC(=O)OC(C)(C)C)C(=O)N[C@@H](C)C(=O)N[C@@H](C)C(=O)NOC(=O)c1ccccc1` [Boc-Ala-Ala-Ala-NHO-Bz], the kinact/Ki result in assay [4] (setting [8]) and in assay [2] (setting [9]) was “keine Hemmung (1e^-4)” in each case.
As to `C[C@H](NC(=O)OC(C)(C)C)C(=O)N[C@@H](C)C(=O)NOC(=O)c1ccccc1` [Boc-Ala-Ala-NHO-Bz], the kinact/Ki result in assay [4] (setting [8]) and in assay [2] (setting [9]) was “keine Hemmung (1e^-4)” each time.
For H-Ile-Pro-NHO-Nb, the values for the kinact/Ki in assay [4] (setting [10]) and in assay [2] (setting [11]) were 149 M⁻¹ s⁻¹ and 208 M⁻¹ s⁻¹, respectively.
With `CC(C)C[C@H](NC(=O)[C@H]1O[C@@H]1C(=O)O)C(=O)NCCCCN=C(N)N` [E-64], in assay [5], the “Inhibierung der DP I” value was “nur schwach inhibiert; also recorded: inert”.
As to `NCC(=O)N[C@@H](Cc1ccccc1)C(=O)NOC(=O)c1ccccc1` [H-Gly-Phe-NHO-Bz, N-(H-Gly-Phe-),O-Benzoyl Hydroxylamin], the kinact/KI in assay [1] is 37 M⁻¹ s⁻¹; in assay [4] (DP I from bovine kidney, Table 1) it was 36700 M⁻¹ s⁻¹; in assay [2] (DP I from human kidney, Table 1), 35000 M⁻¹ s⁻¹; in assay [3], 87 M⁻¹ s⁻¹. Besides, the kinact/Ki in assay [2] (DP I (humane Niere), Table 3) is 34979 s^-1M^-1. The “Inhibierung des Glukagonabbaus durch DP I” value in assay [6] is reported as “Inhibierung des Glukagonabbaus”.
For `CC(=O)N[C@@H](CC(C)C)C(=O)N[C@@H](CC(C)C)C(=O)N[C@H](C=O)CCCNC(=N)N` [Leupeptin], the “Inhibierung der DP I” value in assay [5] is reported as “nur schwach inhibiert”.
As for `Cc1ccc(C(=O)ONC(=O)[C@H](Cc2ccccc2)NC(=O)CNC(=O)OCc2ccccc2)cc1` [Z-Gly-Phe-NHO-Bz-CH3], the kinact/Ki result in assay [4] (setting [10]) and in assay [2] (setting [11]) was “keine Hemmung (2e^-5)” throughout.
For the molecule `C[C@H](NC(=O)OC(C)(C)C)C(=O)N1CCC[C@H]1C(=O)N[C@@H](Cc1ccccc1)C(=O)NOC(=O)c1ccccc1` [Boc-Ala-Pro-Phe-NHO-Bz], the kinact/Ki entry in assay [4] (setting [8]) and in assay [2] (setting [9]) was “keine Hemmung (1e^-4)” each time.
With `N[C@@H](Cc1ccc(O)cc1)C(=O)NCC(=O)NOC(=O)c1ccccc1` [H-Tyr-Gly-NHO-Bz], the “Inhibierung des Enzyms DCE” value in assay [7] is “nur schwach und reversibel inhibiert”. For the same molecule, the kinact/KI in assay [4] (DP Ibovine, inhibitor concentration 1e^-6 M, Table 2) amounted to 3950 M⁻¹ s⁻¹; in assay [2] (DP Ihum, inhibitor concentration 1e^-6 M, Table 2), 3620 M⁻¹ s⁻¹.

By kinact/KI is commonly meant the second-order rate constant of inactivation.

The values above are taken from patent EP1188765B1, “Medical Use of Mechanism-oriented inhibitors of dipeptidyl peptidase I” (Probiodrug AG, priority 1998, dated 2000).
